Results from patent US10150734B2, “Solid forms of 2-(5-(3-fluorophenyl)-3-hydroxypicolinamido)acetic acid, compositions, and uses thereof” (Akebia Therapeutics, Inc., priority 2015, dated 2018).
“Also recorded” adds a separate entry of the source. Where two headings read alike, the source gives them in different places.

Columns and labels:
[1] = Dynamic vapour sorption (moisture sorption) with XRPD of post-DVS material; assay type: physicochemical; conditions: for Moisture adsorbed at 60% RH / Moisture Sorption 90% RH / Moisture Sorption (hygroscopicity in words): DVS; for Moisture adsorbed at 60% RH / Moisture Sorption 90% RH: 25.0 °C; for Moisture Sorption (hygroscopicity in words): from uptake at 60% and 90% RH; for XRPD analysis of the post-DVS material: after DVS and drying at 60 °C for 2 hours; for Hygroscopicity (in words): from DVS moisture sorption
Experimental: Dynamic vapour sorption experiment was carried out by first holding the sample at 40% RH and 25.0° C. until an equilibrium weight was reached or for a maximum of four hours. The sample was then subjected to an isothermal (at 25.0° C.) adsorption scan from 40 to 90% RH in steps of 10%. The sample was allowed to equilibrate to an asymptotic weight at each point for a maximum of four hours. Following adsorption, a desorption scan from […] to 5% RH (at 25.0° C.) was run in steps of 10% again allowing a maximum of four hours for equilibration to an asymptotic weight. An adsorption scan was then performed from 0 to 40% RH in steps of 10%. The sample was then dried for no less than two hours at 60.0° C. and the resulting solid analyzed by XRPD.

[2] = Competitive slurry of calcium, potassium and sodium salts in acetone; assay type: physicochemical; conditions: for Outcome of competitive slurry of salts (in words): acetone (50 μL water added for potassium and sodium salts), room temperature, one and seven days; for XRPD of solids, aliquot time point Day 1 / XRPD of solids, aliquot time point Day 7: slurry of potassium or sodium salts in acetone + 0.05 mL water, RT
Experimental: Calcium, sodium, and potassium salts were used to setup different competitive slurry experiments. For competitive slurry of calcium salts (˜5-6 mg of Salt I and Salt II) were weighed into a 5.0 mL clear vial equipped with magnetic stir bars. These steps were repeated for potassium salt material (˜5-6.5 mg of Salt III) and sodium salt materials (˜2.6-6.4 mg of Salt IV and Salt V). […] All slurries, 400 μL, were filtered through 0.45 micron centrifuge filters after one and seven days of equilibration. The solids were analyzed by XRPD to check for salt conversion (Table 36).

[3] = Thermal holding (TGA thermal hold) experiments of salts, XRPD of resulting solid; assay type: physicochemical; conditions: for XRPD Pre-thermal hold: before TGA thermal hold; for XRPD Post thermal hold / XRPD Post thermal hold, sample left on bench top, 24 hrs: 30-130 °C at 10 °C/min, hold 130 °C/2 min; for XRPD Post thermal hold, sample left on bench top, 24 hrs: then bench top 24 hrs; for XRPD of solid after thermal hold at 130 °C for 2 minutes: held at 130 °C for 2 minutes, cooled to ambient temperature
Experimental: Salt I, Salt II, Salt III, Salt IV, Salt V, Salt VI, Salt VII, Salt VIII, Salt IX and Salt X were characterized to evaluate its physical form and stability.
In an effort to isolate a high melt crystal form, the material was held at 130° C. for 2 minutes followed by cooling to ambient temperature.
In an effort to isolate a high melt crystal form through a dehydration/recrystallization process, Salt IV was held at 130° C. for 2 minutes followed by cooling to ambient temperature.

[4] = Stability of crystalline materials from selected salts in different humidity (XRPD); assay type: physicochemical; conditions: for XRPD Post humidity exposure: 65% RH, RT; for XRPD Initial: before humidity exposure
From the text: Table 49 provides thermal stability data. Table 50 provides TGA thermal data.

[5] = Thermal stability experiments (solid stored at 60 °C; XRPD and HPLC); conditions: for HPLC (% AUC): after thermal stress at 60.0 °C; for Parent Material HPLC (% AUC): parent material before thermal stress; for XRPD, aliquot time point Day 1 / XRPD, aliquot time point Day 7: solid stored at 60.0 °C; for Physical form / XRPD pattern change after storage at 60 °C for seven days (in words) / Chemical stability / degradation by HPLC after storage at 60 °C for seven days (in words): solid
[6] = Aqueous solubility (slurry in deionized water at room temperature, filtrate by HPLC, solids by XRPD); conditions: for Aqueous Solubility: standard curve linear range 0.008 to 0.2 mg/mL; for Aqueous Solubility: XRPD (1 day) of solids: solid form after 1 day slurry in water
Experimental: Approximately 14-25 mg of Forms A, D and G were transferred to 20 mL vials equipped with magnetic stir bars. 1.0 mL of deionized water was added and the resulting free flowing slurry was allowed to equilibrate over 1 and 7 days period with stirring at room temperature. […] The filtrates were analyzed by HPLC to determine solubility.

[7] = Slurry of a single salt (seven days of stirring in water / acetone), XRPD; assay type: physicochemical
[8] = Thermal holding (TGA thermal hold) experiments of salts, XRPD of resulting solid; assay type: physicochemical
[9] = deionized water, room temperature

hydration property [1]	Moisture Sorption ([1]; 60% RH)	Moisture Sorption ([1]; 90% RH)	Moisture adsorbed at 60% RH ([1]; 60% RH)	Moisture Sorption 90% RH ([1]; 90% RH)	Moisture Sorption (hygroscopicity in words) [1]	Outcome of competitive slurry of salts (in words) [2]	XRPD of solids, aliquot time point Day 1 [2]	XRPD of solids, aliquot time point Day 7 [2]	XRPD Pre-thermal hold [3]	XRPD Post humidity exposure [4]	XRPD Initial [4]	HPLC (% AUC) [5]	Parent Material HPLC (% AUC) [5]	XRPD, aliquot time point Day 1 [5]	XRPD, aliquot time point Day 7 [5]	Physical form / XRPD pattern change after storage at 60 °C for seven days (in words) [5]	Chemical stability / degradation by HPLC after storage at 60 °C for seven days (in words) [5]	Compound	XRPD analysis of the post-DVS material [1]	Hygroscopicity (in words) [1]	further results
monohydrate	60% RH: 6.0 wt %	90% RH: 6.4 wt %	6.0 wt %	6.4 wt %	(moderately	most stable polymorphs	Salt V +	Salt V	Salt V	Salt V	Salt V	99.9 % AUC	99.9 % AUC	Salt V	Salt V	–	–	O.O=C([O-])CNC(=O)c1ncc(-c2cccc(F)c2)cc1[O-].[Na+].[Na+] [Salt V]	mostly consistent with Salt V with a few missing peaks	moderately hydroscopic; also recorded: moderately hygroscopic	Aqueous Solubility [6, 9]: 79.8 mg/mL; Aqueous Solubility: XRPD (1 day) of solids [6]: Salt V + Extra
–	60% RH: 1.0 wt %	90% RH: 2.7 wt %	1.0 wt %	2.7 wt %	–	stable in an acetone slurry	–	–	–	–	–	–	–	–	–	no change in XRPD pattern	no degradation	O=C([O-])CNC(=O)c1ncc(-c2cccc(F)c2)cc1O.[Na+] [Salt VIII]	consistent with the starting material	moderately hydroscopic	XRPD after seven days of stirring in acetone ([7]; acetone): no change in XRPD pattern
–	60% RH: 0.3 wt %	90% RH: 0.3 wt %	0.3 wt %	0.3 wt %	–	–	–	–	–	–	–	–	–	–	–	no change in XRPD pattern	no degradation	O=C([O-])CNC(=O)c1ncc(-c2cccc(F)c2)cc1O.[Na+] [Salt IX]	consistent with Salt IV of Compound 1	moderately hydroscopic	Form after seven days of stirring in water and acetone ([7]; water and acetone): converted to Salt VIII or Salt IV; XRPD of solid after thermal holding experiment at 150 °C ([8]; held at 150 °C): consistent with the starting material
–	60% RH: 2.1 wt %	90% RH: 4.5 wt %	2.1 wt %	4.5 wt %	(moderately	most stable polymorphs	Salt III	Salt III	–	Salt III + Salt IX	Salt III + Salt IX	99.9 % AUC	99.9 % AUC	Salt III	Salt III	no change in physical form	–	O=C([O-])CNC(=O)c1ncc(-c2cccc(F)c2)cc1O.[K+] [Salt III]	–	moderately hydroscopic; also recorded: moderately hygroscopic	hydration property ([1]; 60% RH): hemi-(60% RH); hydration property ([1]; 90% RH): to mono-hydrate; XRPD Post thermal hold [3]: Salt III; XRPD Post thermal hold, sample left on bench top, 24 hrs [3]: Salt III; XRPD of solid after thermal hold at 130 °C for 2 minutes [3]: consistent with Salt III; Solid form by XRPD after 1 day ([6]; slurry in deionized water, room temperature, 1 day (24 hour)): converted from Salt III to Salt IX; Solid form by XRPD after 7 day ([6]; slurry in deionized water, room temperature, 7 days): remained as Salt IX
monohydrate	60% RH: 6.1 wt %	90% RH: 6.5 wt %	6.1 wt %	6.5 wt %	(moderately	–	Salt V +	Salt V	Salt IV	–	Salt IV	99.9 % AUC	99.9 % AUC	Salt IV	Salt IV	no polymorph conversion or degradation	no polymorph conversion or degradation	O.O=C([O-])CNC(=O)c1ncc(-c2cccc(F)c2)cc1O.[Na+] [Salt IV]	consistent XRPD pattern as the starting material	moderately hydroscopic; also recorded: moderately hygroscopic	XRPD Post thermal hold [3]: Salt IV; XRPD Post thermal hold, sample left on bench top, 24 hrs [3]: Salt IV; XRPD of solid after thermal hold at 130 °C for 2 minutes [3]: consistent with Salt IV; XRPD Post thermal hold ([8]; 180-260 °C at 10 °C/min, hold 260 °C/2 min): Salt VI; XRPD Post thermal hold, sample left on bench top, 24 hrs ([8]; 180-260 °C at 10 °C/min, hold 260 °C/2 min, then bench top 24 hrs): Salt VI; XRPD of solid after thermal hold at 260 °C ([8]; held at 260 °C): conversion to a new salt (Salt VI); Form change after slurrying in water for 13 days ([6]; aqueous solubility study, 13 days): no form change; Solubility ([6]; deionized water, room temperature, equilibrated with stirring, filtrate by HPLC): 19.0 mg/mL; Aqueous Solubility [6, 9]: 19 mg/mL; Aqueous Solubility: XRPD (1 day) of solids [6]: Salt IV + Extra
